US6662039B2, “Optical probing of neuronal connections with fluorescent indicators” (The Trustees of Columbia University in the City of New York, priority 1999, dated 2003)

Tested on: neurons in visual cortex brain slices
Assay: Optical probing of cortical brain slices made more excitable by channel/receptor blockers
Type: cell-based, mouse
Settings: for effect on number of possible postsynaptic targets (follower cells): bath application to fura-2 AM loaded mouse cortical slice, trigger cell stimulated; for epileptiform events in imaged neurons: most or all imaged neurons show action-potential induced increases in [Ca2+]i
Source text: This method consist of (i) loading (staining) populations of neurons in brain slices with fluorescent indicators such as fura-2 AM and (ii) imaging dozens of loaded cells during whole-cell stimulation of a particular neuron (the “trigger” cell). On-line analysis is used to determine if any other neurons (the “follower” cells) show a calcium transient time-locked to the firing of the “trigger” cell. After detection, a chosen “follower” cell is patched and a similar experiment is repeated. Histological processing is carried out on the fixed specimens. A detailed explanation of the experiment and some representative results follows.
Brain slices are made from the primary visual cortex of postnatal day (PND) 12-23 C57BL6 mice. Mice are anesthetized with Ketamine/Xylazine (120 mg/kg, 10 mg/kg respectively). Animals are decapitated and the brain is quickly removed and placed into cold ACSF (126 mM NaCl, 3 mM KCl, 26 mM NaHCO3, 1 mM NaH2PO4, 2 mM CaCl2, 2 mM MgSO4, 10 mM Dextrose, bubbled with 95% O2/5% CO2). Coronal slices, 300-400 μm thick, are cut using a vibratome (TPI) and are incubated at 35° C. for 30 minutes in a submerged slice chamber. Slices are then incubated at room temperature (˜25° C.) for up to 12 hours.
After loading, slices are placed in a submerged recording chamber mounted on the stage of an upright microscope (BX50WI, Olympus). All experiments are done at room temperature. Fluorescent images of fura-2 loaded neurons are taken with a cCCD camera (Micromax, Princeton Instruments) equipped with a frame transfer chip (EEV 512, Kodak) or an hexagonal photodiode array with 464 pixels (PDA, Universal Imaging). To maximize the number of imaged neurons a 20×/0.5 NA water immersion objective (Olympus) is used. Image acquisition is typically 25 msec/frame and each pixel is digitized at 12 bits. Camera images are acquired, stored and analyzed using a Macintosh 7100 (Apple Computers, Cupertino, Calif.) computer and IPLab software (Signal Analytics). Signals from the photodiodes are amplified, sampled at 1.6 KHz and analyzed using Neuroplex (Universal Imaging). For imaging of the calcium transients a 380 nm excitation, a 395 nm dichroic and a 510 emission filter (Chroma) are used. Also imaged is each neuron at the isosbestic excitation of 365 nm during every experiment to assess the approximate [Ca^2+]i and therefore monitor the health of the cells. The 365 nm images are used to estimate the intracellular concentration of fura-2, using the fluorescence of the patched cell (which has a known concentration of fura-2) as a calibration. For most neurons, after correcting for background fluorescence and focus, an intracellular concentration of indicator of approximately 40-50 μM was estimated. These values, obtained from experiments with good loading at PND 12-23, obviously depend crucially on many factors that affect loading, such as age, incubation time and health of the slices. Changes in fluorescence in multiple cells were analyzed with a program written in IPLab. The fluorescence change over time is defined as ΔF/F=(F0−F1)/(F0) and, for the analysis of the AM loaded cells fluorescence change was defined as ΔF/F=((F0−-B0)−(F1−B1))/(F0−B0), expressed in %, where F1 and B are fluorescence in the somata and background fluorescence, respectively, at any given timepoint, and F0 and B0 are fluorescence and background at the beginning of the experiment.
To maximize the effect of the stimulation of the trigger cell, different methods of enhancing synaptic release and also of making postsynaptic cells more excitable have been experimented with. Currently used is 3 mM [Ca^2+]e in our ACSF (artificial cerebrospinal fluid) because high [Ca^2+]e decreases synaptic failures and, by increasing the [Ca^2+] gradient between the inside and outside of the cell, it also produces bigger action-potential induced calcium signals. […]

SMILES | effect on number of possible postsynaptic targets (follower cells) | epileptiform events in imaged neurons
Nc1ccncc1 [4-AP] | increases the number of possible postsynaptic targets | produces spontaneous or evoked epileptiform events
CN1CCc2cc3c(cc2[C@H]1[C@@H]1OC(=O)c2c1ccc1c2OCO1)OCO3 [Bicuculine] | increases the number of possible postsynaptic targets | produces spontaneous or evoked epileptiform events
CC[N+](CC)(CC)CC [TEA] | increases the number of possible postsynaptic targets | produces spontaneous or evoked epileptiform events
